Measured values taken from patent US9873696B2, “Neprilysin inhibitors” (THERAVANCE BIOPHARMA R&D IP, LLC, priority 2010, dated 2018).

target: T1, human NEP (Homo sapiens, UniProt P08473); assay: In vitro enzyme inhibition assay at human NEP (Assay 1); assay type: biochemical; settings: recombinant enzyme, fluorogenic peptide substrate, 37° C.
T1 construct: purchased R&D Systems, Minneapolis, Minn; 1182-ZN
Method in brief: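 Recombinant enzyme preincubated with compound 30 min at 37 °C, then 10 μM Mca-D-Arg-Arg-Leu-Dap-(Dnp)-OH added in 50 mM HEPES pH 7.5, 100 mM NaCl, 0.01% Tween-20, 10 μM ZnSO4; stopped after 20 min with acetic acid. Fluorescence read at 320/405 nm; Ki from nonlinear fit of v=v0/[1+(I/K′)], reported as pKi.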

T1 sequence (P08473 whole entry): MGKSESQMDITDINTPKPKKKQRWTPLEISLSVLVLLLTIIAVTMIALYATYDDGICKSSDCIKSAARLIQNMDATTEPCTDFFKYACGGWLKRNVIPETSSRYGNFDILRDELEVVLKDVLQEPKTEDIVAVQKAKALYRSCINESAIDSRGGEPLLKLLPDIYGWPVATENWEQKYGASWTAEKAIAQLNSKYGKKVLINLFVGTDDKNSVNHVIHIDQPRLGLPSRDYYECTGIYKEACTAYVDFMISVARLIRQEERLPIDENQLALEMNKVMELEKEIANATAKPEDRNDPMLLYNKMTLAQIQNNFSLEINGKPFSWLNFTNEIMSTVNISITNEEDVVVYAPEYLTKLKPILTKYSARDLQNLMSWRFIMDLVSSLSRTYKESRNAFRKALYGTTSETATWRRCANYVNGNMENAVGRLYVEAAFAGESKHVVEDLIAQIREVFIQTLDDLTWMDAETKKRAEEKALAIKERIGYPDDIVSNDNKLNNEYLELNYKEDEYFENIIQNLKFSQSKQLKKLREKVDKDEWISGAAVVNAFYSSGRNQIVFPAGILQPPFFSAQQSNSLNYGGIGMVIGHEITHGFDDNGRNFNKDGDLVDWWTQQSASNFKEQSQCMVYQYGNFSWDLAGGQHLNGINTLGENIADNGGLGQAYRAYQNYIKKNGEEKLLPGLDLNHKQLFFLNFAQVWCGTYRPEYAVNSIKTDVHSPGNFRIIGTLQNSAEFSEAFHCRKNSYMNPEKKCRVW

Row | SMILES | Ki [nM]
1 | O=C(NN(Cc1ccc(-c2ccccc2)cc1)C[C@@H](O)C(=O)O)c1cc(C(=O)N2CCOCC2)n[nH]1 [Example 2-15, (R)-3-{N-Biphenyl-4-ylmethyl-N′-[5-(morpholine-4-carbonyl)-2H-pyrazole-3-carbonyl]hydrazino}-2-hydroxypropionic acid] | 1.26 to 10
2 | O=C(NN(Cc1ccc(-c2cc(Cl)ccc2F)cc1)C[C@@H](O)C(=O)O)c1nnn[nH]1 [Example 6A, (R)-3-[N-(5′-Chloro-2′-fluorobiphenyl-4-ylmethyl)-N′-(1H-tetrazole-5-carbonyl)-hydrazino]-2-hydroxypropionic Acid] | ≤ 1
3 | O=C(NN(Cc1ccc(-c2ccccc2)cc1)C[C@@H](O)C(=O)O)c1cc(C(=O)O)n(Cc2c(F)cc(Cl)cc2F)n1 [Example 2-17, 5-[N′-Biphenyl-4-ylmethyl-N′-((R)-2-carboxy-2-hydroxyethyl)-hydrazinocarbonyl]-2-(4-chloro-2,6-difluorobenzyl)-2H-pyrazole-3-carboxylic acid] | 12.6 to 100
4 | COc1cc(C(=O)NN(Cc2ccc(-c3cccc(Cl)c3)cc2)C[C@@H](O)C(=O)O)on1 [Example 4-32, (R)-3-[N-(3′-Chlorobiphenyl-4-ylmethyl)-N′-(3-methoxy-isoxazole-5-carbonyl)-hydrazino]-2-hydroxy-propionic acid] | 1.26 to 10
5 | CC(C)(O)c1cc(C(=O)NN(Cc2ccc(-c3cccc(Cl)c3)cc2)C[C@@H](O)C(=O)O)[nH]n1 [Example 4-27, (R)-3-{N-(3′-Chlorobiphenyl-4-ylmethyl)-N′-[5-(1-hydroxy-1-methyl-ethyl)-2H-pyrazole-3-carbonyl]-hydrazino}-2-hydroxy-propionic acid] | 1.26 to 10
6 | O=C(NN(Cc1ccc(-c2cccc(Cl)c2)cc1)C[C@@H](O)C(=O)O)c1cc(-c2ccccn2)n[nH]1 [Example 4-21, (R)-3-[N-(3′-Chlorobiphenyl-4-ylmethyl)-N′-(5-pyridin-2-yl-2H-pyrazole-3-carbonyl)-hydrazino]-2-hydroxy-propionic acid] | 1.26 to 10
7 | O=C(NN(Cc1ccc(-c2ccccc2O)cc1)C[C@@H](O)C(=O)O)c1cc(O)no1 [Example 5-6, (R)-2-Hydroxy-3-[N-(2′-hydroxy-biphenyl-4-ylmethyl)-N′-(3-hydroxy-isoxazole-5-carbonyl)-hydrazino]-propionic acid] | 1.26 to 10
8 | O=C(O)c1cc(C(=O)NN(Cc2ccc(-c3ccccc3)cc2)C[C@@H](O)C(=O)O)[nH]n1 [Example 1, 5-[N′-Biphenyl-4-ylmethyl-N′-((R)-2-carboxy-2-hydroxyethyl)hydrazinocarbonl]-1H-pyrazole-3-carboxylic Acid] | ≤ 1
9 | O=C(NN(Cc1ccc(-c2ccccc2)cc1)C[C@@H](O)C(=O)O)c1cc(C(=O)N2CC[C@H](O)C2)n[nH]1 [Example 2-12, (R)-3-{N-Biphenyl-4-ylmethyl-N′-[5-((S)-3-hydroxy-pyrrolidine-1-carbonyl)-2H-pyrazole-3-carbonyl]hydrazino}-2-hydroxypropionic acid] | 1.26 to 10
10 | O=C(NN(Cc1ccc(-c2cccc(Cl)c2)cc1)C[C@@H](O)C(=O)O)c1cc(-c2ccccc2O)n[nH]1 [Example 4-19, (R)-3-{N-(3′-Chlorobiphenyl-4-ylmethyl)-N′-[5-(2-hydroxy-phenyl)-2H-pyrazole-3-carbonyl]-hydrazino}-2-hydroxy-propionic acid] | 1.26 to 10
11 | O=C(NN(Cc1ccc(-c2cccc(Cl)c2)cc1)C[C@@H](O)C(=O)O)c1cnn[nH]1 [Example 4-3, (R)-3-[N-(3′-Chlorobiphenyl-4-ylmethyl)-N′-(3H-[1,2,3]triazole-4-carbonyl)-hydrazino]-2-hydroxy-propionic acid] | 1.26 to 10
12 | O=C(NN(Cc1ccc(-c2cccc(Cl)c2)cc1)C[C@@H](O)C(=O)O)c1cc(C(=O)N2CCC2)n[nH]1 [Example 4-12, (R)-3-[N′-[5-(Azetidine-1-carbonyl)-2H-pyrazole-3-carbonyl]-N-(3′-chlorobiphenyl-4-ylmethyl)-hydrazino]-2-hydroxy-propionic acid] | ≤ 1
13 | O=C(NN(Cc1ccc(-c2cccc(Cl)c2)cc1)C[C@@H](O)C(=O)O)c1cc(-c2cnccn2)n[nH]1 [Example 4-24, (R)-3-[N-(3′-Chlorobiphenyl-4-ylmethyl)-N′-(5-pyrazin-2-yl-2H-pyrazole-3-carbonyl)-hydrazino]-2-hydroxy-propionic acid] | 1.26 to 10
14 | O=C(NN(Cc1ccc(-c2ccccc2)cc1)C[C@@H](O)C(=O)O)c1cc(O)no1 [Example 2-19, (R)-3-[N-Biphenyl-4-ylmethyl-N′-(3-hydroxyisoxazole-5-carbonyl)-hydrazino]-2-hydroxypropionic acid] | 1.26 to 10
15 | CN(C)C(=O)c1cc(C(=O)NN(Cc2ccc(-c3cccc(Cl)c3)cc2)C[C@@H](O)C(=O)O)[nH]n1 [Example 4-13, (R)-3-[N-(3′-Chlorobiphenyl-4-ylmethyl)-N′-(5-dimethylcarbamoyl-2H-pyrazole-3-carbonyl)-hydrazino]-2-hydroxy-propionic acid] | ≤ 1

Next, values leading:

Row | Ki [nM] | SMILES
16 | 1.26 to 10 | CCOc1cc(C(=O)NN(Cc2ccc(-c3cc(Cl)ccc3F)cc2)C[C@@H](O)C(=O)O)n[nH]1 [Example 8-57, (R)-3-[N-(5′-Chloro-2′-fluoro-biphenyl-4-ylmethyl)-N′-(5-ethoxy-1H-pyrazole-3-carbonyl)-hydrazino]-2-hydroxy-propionic acid]
17 | ≤ 1 | COc1ccccc1-c1cc(C(=O)NN(Cc2ccc(-c3cc(Cl)ccc3F)cc2)C[C@@H](O)C(=O)O)[nH]n1 [Example 8-39, (R)-3-{N-(5′-Chloro-2′-fluoro-biphenyl-4-ylmethyl)-N′-[5-(2-methoxy-phenyl)-2H-pyrazole-3-carbonyl]-hydrazino}-2-hydroxy-propionic acid]
18 | 1.26 to 10 | COc1ccc(F)cc1-c1ccc(CN(C[C@@H](O)C(=O)O)NC(=O)c2cc(O)no2)cc1 [Example 8-4, (R)-3-[N-(5′-Fluoro-2′-methoxy-biphenyl-4-ylmethyl)-N′-(3-hydroxy-isoxazole-5-carbonyl)-hydrazino]-2-hydroxy-propionic acid]
19 | ≤ 1 | O=C(NN(Cc1ccc(-c2cc(Cl)ccc2F)cc1)C[C@@H](O)C(=O)O)c1cc(F)c2nn[nH]c2c1 [Example 8-73, (R)-3-[N-(5′-Chloro-2′-fluoro-biphenyl-4-ylmethyl)-N′-(7-fluoro-3H-benzotriazole-5-carbonyl)-hydrazino]-2-hydroxy-propionic acid]
20 | 1.26 to 10 | O=C(NN(Cc1ccc(-c2cc(Cl)ccc2F)cc1)C[C@@H](O)C(=O)O)c1cc(Cl)no1 [Example 8-29, (R)-3-[N-(5′-Chloro-2′-fluoro-biphenyl-4-ylmethyl)-N′-(3-chloro-isoxazole-5-carbonyl)-hydrazino]-2-hydroxy-propionic acid]
21 | ≤ 1 | O=C(NN(Cc1ccc(-c2cccc(Cl)c2)cc1F)C[C@@H](O)C(=O)O)c1cc(O)no1 [Example 9A, (R)-3-[N-(3′-Chloro-3-fluorobiphenyl-4-ylmethyl)-N′-(3-hydroxyisoxazole-5-carbonyl)-hydrazino]-2-hydroxpropionic Acid]
